Literature values in US20060166941A1, “Treatment and/or prevention of non-viral epithelial damage” (Epistem Limited, priority 2003, published 2006).

Tested on: Na+/Pi cotransport across renal cortical brush border membrane
Conditions: Hoppe et al. 1988; cited from earlier work

O=C(O)C(Cl)(Br)P(=O)(O)O (stereo not drawn) [alpha-Cl-alpha-Br-phosphonoacetate]
inhibitory activity relative to phosphonoformic acid: threefold greater inhibitory activity than phosphonoformic acid
